Test results reported in patent US6932990B2, “Carbohydrate absorption inhibitor and method for manufacturing the same” (Oryza Oil & Fat Chemical Co., Ltd., priority 2000, dated 2005).
In brackets after ≈: the same amount, converted by molar mass. Where two headings read alike, the source gives them in different places.

Legend:
[1] = target: α-glucosidase (acetone powder in the intestinal canal of rat); experiment: α-glucosidase inhibitory activity (4-methylumbelliferyl-α-D-glucoside, fluorometry); type: biochemical
Protocol: Next, α-glucosidase inhibitory activity (%) in regard to the embodiment 1 (evening primrose seed extract) was identified by the following method. As for the α-glucosidase for this measurement, 0.1 mol maleic acid buffer solution (pH 6.0) was added to the acetone powder in the intestinal canal of rat (SIGMA CHEMICAL CO.) and homogenized in ice by using a glass homogenizer, and then centrifugalized supernatant was diluted 20 times. Measuring method is shown below. […] After that, the reaction was suspended by adding 3 ml glycin buffer solution (pH 10.3) and the quantity of the isolated 4-methylumbelliferyl was determined by using a fluorometer (excitation wavelength: 366 nm & fluorescent wavelength: […]). Enzyme activity was calculated based on this determined value and inhibitory activity (%) was calculated by the following formula. […] Inhibitory activity (%)=100−Enzyme activity (%)

[2] = target: T1, α-amylase derived from pancreas of pig (Sus scrofa, UniProt P00690); experiment: Inhibitory activity against α-amylase derived from pancreas of pig (same method); type: biochemical
T1 construct: the α-amylase derived from pancreas of pig; from tissue; host or cells: pig pancreas
T1 sequence (P00690 16-511): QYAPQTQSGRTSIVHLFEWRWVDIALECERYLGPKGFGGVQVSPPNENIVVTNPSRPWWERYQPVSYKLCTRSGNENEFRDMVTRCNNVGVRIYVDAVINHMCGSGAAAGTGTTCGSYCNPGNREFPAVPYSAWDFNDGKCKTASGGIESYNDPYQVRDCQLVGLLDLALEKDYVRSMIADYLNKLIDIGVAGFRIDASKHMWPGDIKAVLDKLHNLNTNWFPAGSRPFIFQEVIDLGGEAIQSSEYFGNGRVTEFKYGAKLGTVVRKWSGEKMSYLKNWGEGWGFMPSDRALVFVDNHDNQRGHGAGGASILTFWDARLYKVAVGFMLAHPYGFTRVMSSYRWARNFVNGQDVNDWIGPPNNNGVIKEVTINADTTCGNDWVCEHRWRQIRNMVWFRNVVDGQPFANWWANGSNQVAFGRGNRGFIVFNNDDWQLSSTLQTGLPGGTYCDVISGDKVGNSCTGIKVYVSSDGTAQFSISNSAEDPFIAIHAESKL

IC50 ([2]; read-out: IC50 against the α-amylase derived from pancreas of pig (converted)) [mM]	Molecule	IC50 (50% inhibitory concentration) against α-glucosidase [1] [mg/mL]	IC50 [2] [mM]
	O=C(O)c1cc(O)c(O)c(O)c1 [Gallic acid]	0.8 (≈ 4700 µM)	2.35
0.0213	O=C(OC[C@H]1O[C@@H](OC(=O)c2cc(O)c(O)c(O)c2)[C@H](OC(=O)c2cc(O)c(O)c(O)c2)[C@@H](OC(=O)c2cc(O)c(O)c(O)c2)[C@@H]1OC(=O)c1cc(O)c(O)c(O)c1)c1cc(O)c(O)c(O)c1 [Pentagalloylglucose]		
	Catechin	0.8	
	O=c1oc2c(O)c(O)cc3c(=O)oc4c(O)c(O)cc1c4c23 [Ellagic acid]	>0.08	
